Molecules are shown by their SMILES.

Experiment [1] deals with T1, Human Tryptophan 2,3-dioxygenase (TDO) (Homo sapiens, UniProt P48775).
T1 construct: His tag (N); made in house; host or cells: E. coli
As to the kind of experiment: Human TDO enzymatic assay (kynurenine level). The format is biochemical. To be noted: 1 nM TDO, 350 μM L-Trp; geometric mean; read-out: TDO GMean: IC50 (μM) (Biochemical Assay). How it is done: (§1) Human Indoleamine 2,3-dioxygenase (IDO) and Tryptophan 2,3-dioxygenase (TDO) enzymatic assay
(§2) Human IDO or TDO with N-terminal His tag is purified in E. coli. The IDO enzymatic assay is performed using 6 nM IDO and 10 μM L-Trp in the presence of 10 mM ascorbic acid, 5 μM methylene blue, 100 nM catalase and 0.01% Tween 20 in 50 mM sodium phosphate buffer (pH 6.5). 19 μL of above reaction mixture is added to wells of 384 well reaction plate containing […] of various concentrations of test compound or DMSO vehicle and incubated for 20 minutes at room temperature. The TDO enzymatic reaction assay is performed using 1 nM TDO and 350 μM L-Trp in the presence of 10 mM ascorbic acid, 0.4 μM methylene blue, 100 nM catalase and 0.01% Tween 20 in 50 mM sodium phosphate buffer (pH 6.5). 19 μL of above reaction mixture is added to wells of 384 well reaction plate containing 1 μL of various concentrations of test compound or DMSO vehicle and incubated for 70 minutes at room temperature. 16 wells containing all the components of reaction mixture and 5% DMSO serve as high control. 16 well containing all the components except enzyme of reaction mixture and 5% DMSO serves as low control. Both IDO and TDO enzymatic reactions are stopped by addition of […] of 30% TCA and incubated 30 minutes at 50° C. to hydrolyze N-formylkynurenine produced by IDO or TDO to kynurenine. Upon measuring the kynurenine level, the percentage inhibition is calculated at individual concentrations relative to high and low controls. The data is analyzed by using nonlinear regression to generate IC50 values.

Experiment [2] addresses T2, Human Indoleamine 2,3-dioxygenase (IDO) (Homo sapiens, UniProt P14902).
T2 construct: His tag (N); made in house; host or cells: E. coli
As to the kind of experiment: Human IDO enzymatic assay (kynurenine level). It counts as biochemical. The conditions noted are these: 6 nM IDO, 10 μM L-Trp; geometric mean; read-out: IDO1 GMean: IC50 (μM) (Biochemical Assay). How it is done:
as §1, §2

T2 sequence (P14902 whole entry): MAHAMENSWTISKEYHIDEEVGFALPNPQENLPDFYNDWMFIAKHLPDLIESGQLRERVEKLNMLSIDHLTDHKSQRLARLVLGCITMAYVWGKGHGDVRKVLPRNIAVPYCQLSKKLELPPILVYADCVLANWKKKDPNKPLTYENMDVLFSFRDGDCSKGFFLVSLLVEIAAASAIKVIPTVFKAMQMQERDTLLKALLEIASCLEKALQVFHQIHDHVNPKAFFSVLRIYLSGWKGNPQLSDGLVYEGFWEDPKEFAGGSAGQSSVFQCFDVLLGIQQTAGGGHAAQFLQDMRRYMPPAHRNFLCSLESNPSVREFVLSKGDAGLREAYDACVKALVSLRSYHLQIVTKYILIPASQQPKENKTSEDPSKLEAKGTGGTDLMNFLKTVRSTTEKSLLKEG
T1 sequence (P48775 whole entry): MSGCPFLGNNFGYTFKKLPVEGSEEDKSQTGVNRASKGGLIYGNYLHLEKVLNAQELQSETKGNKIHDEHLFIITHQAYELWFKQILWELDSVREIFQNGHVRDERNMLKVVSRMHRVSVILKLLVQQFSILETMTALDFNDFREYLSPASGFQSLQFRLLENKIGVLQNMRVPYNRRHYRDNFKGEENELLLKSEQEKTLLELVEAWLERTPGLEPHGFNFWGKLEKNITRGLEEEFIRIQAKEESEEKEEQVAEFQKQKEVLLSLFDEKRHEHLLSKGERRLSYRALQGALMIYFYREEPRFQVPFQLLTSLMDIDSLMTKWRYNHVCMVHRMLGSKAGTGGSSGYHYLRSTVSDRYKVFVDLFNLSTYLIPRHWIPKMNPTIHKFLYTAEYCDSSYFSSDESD

`CCCOc1ccc(C(O)c2cccc3cncn23)cc1` (centres unmarked) [Compound P-0064, imidazo[1,5-a]pyridin-5-yl(4-propoxyphenyl)methanol]: the IC50 lay in the range of 10 to 100 µM in experiment [1] and 0.0001 to 10 µM in experiment [2].
The like results for `O=C(c1ccc(Cl)cn1)N1CCC(C(F)(F)[C@H](O)c2c3c(cc4cn[nH]c24)CC3)CC1` [Compound P-0621, (R)-(5-chloropyridin-2-yl)(4-(2-(5,6-dihydro-1H-cyclobuta[f]indazol-7-yl)-1,1-difluoro-hydroxyethyl)piperidin-1-yl) methanone] were, in that order, 0.0001 to 10 µM and 0.0001 to 10 µM.
With `CC(C)(C1CCN(C(=O)NCS(C)(=O)=O)CC1)[C@H](O)c1cc(Cl)cc2cn[nH]c12` [Compound P-0579, (S)-4-(1-(5-chloro-1H-indazol-7-yl)-1-hydroxy-2-methylpropan-2-yl)-N-((methylsulfony)methyl)piperidine-1-carboxamide], the IC50 in experiment [1] and in experiment [2] was 0.0001 to 10 µM in each case.
As to `CC(C)(C1CCN(C(=O)NCC2(C#N)CC2)CC1)[C@H](O)c1cc(Cl)cc2cn[nH]c12` [Compound P-0675, (S)-4-(1-(5-chloro-1H-indazol-7-yl)-1-hydroxy-2-methylpropan-2-yl)-N-((1-cyanocyclopropyl)methyl)piperidine-1-carboxamide], the IC50 in experiment [1] and in experiment [2] was 0.0001 to 10 µM throughout.
For `CN(C)c1ccc(CNC(=O)N2CCC(C(C)(C)[C@H](O)c3cc(Cl)cc4cn[nH]c34)CC2)cn1` [Compound P-0586, (S)-4-(1-(5-chloro-1H-indazol-7-yl)-1-hydroxy-2-methylpropan-2-yl)-N-((6-(dimethylamino)pyridin-3-yl)methyl)piperidine-1-carboxamide], the IC50 in experiment [1] and in experiment [2] was 0.0001 to 10 µM each time.
Turning to `CN(C)c1cccc(C(O)c2cccc3cncn23)c1` (centres unmarked) [Compound P-0072, (3-(dimethylamino)phenyl)(imidazo[1,5-a]pyridin-5-yl)methanol], the IC50 in experiment [1] and in experiment [2] was 10 to 100 µM throughout.
In the case of `OC(c1cccc(N2CCCCC2)c1)c1cccc2cncn12` (centres unmarked) [Compound P-0073, imidazo[1,5-a]pyridin-5-yl(3-(piperidin-1-yl)phenyl)methanol], the values for the IC50 in experiment [1] and in experiment [2] were 10 to 100 µM and 0.0001 to 10 µM, respectively.
For the molecule `CNC(=O)CNC(=O)N1CCC(C(C)(C)[C@H](O)c2cc(Cl)cc3cn[nH]c23)CC1` [Compound P-0583, (S)-4-(1-(5-chloro-1H-indazol-7-yl)-1-hydroxy-2-methylpropan-2-yl)-N-(2-(methylamino)-2-oxoethyl)piperidine-1-carboxamide], the IC50 in experiment [1] and in experiment [2] was 0.0001 to 10 µM throughout.
For `O=C(CO)N1CCC(C(F)(F)[C@H](O)c2c3c(cc4cn[nH]c24)CC3)CC1` [Compound P-0615, (R)-1-(4-(2-(5,6-dihydro-1H-cyclobuta[f]indazol-7-yl)-1,1-difluoro-2-hydroxyethyl)piperidin-1-yl)-2-hydroxyethan-1-one], the IC50 in experiment [1] and in experiment [2] was 0.0001 to 10 µM throughout.
In the case of `CC(C)(C1CCN(C(N)=O)CC1)C(O)c1cc(Cl)cc2[nH]ncc12` (centres unmarked) [Compound P-0606, 4-(1-(6-chloro-1H-indazol-4-yl)-1-hydroxy-2-methylpropan-2-yl)piperidine-1-carboxamide], the IC50 in experiment [1] and in experiment [2] was 0.0001 to 10 µM throughout.
With `CC(C)(C1CCN(C(=O)N[C@@H]2CC[C@@H](O)C2)CC1)[C@H](O)c1cc(Cl)cc2cn[nH]c12` [Compound P-0591, 4-((S)-1-(5-chloro-1H-indazol-7-yl)-1-hydroxy-2-methylpropan-2-yl)-N-((1R,3R)-3-hydroxycyclopentyl) piperidine-1-carboxamide], the IC50 in experiment [1] and in experiment [2] was 0.0001 to 10 µM throughout.
For `OC(c1cccc(-n2ccnc2)c1)c1cccc2cncn12` (centres unmarked) [Compound P-0070, (3-(1H-imidazol-1-yl)phenyl)(imidazo[1,5-a]pyridin-5-yl)methanol], the IC50 in experiment [1] and in experiment [2] was 100 to 200 µM in each case.
Regarding `CC(C)(C1CCN(C(=O)CC2CCS(=O)(=O)CC2)CC1)C(O)c1cc(Cl)cc2[nH]ncc12` (centres unmarked) [Compound P-0610, 1-(4-(1-(6-chloro-1H-indazol-4-yl)-1-hydroxy-2-methylpropan-2-yl)piperidin-1-yl)-2-(1,1-dioxidotetrahydro-2H-thiopyran-4-yl)ethan-1-one], the IC50 in experiment [1] and in experiment [2] was 0.0001 to 10 µM throughout.
In the case of `CC(C)(C1CCN(C(=O)NCCCO)CC1)[C@H](O)c1cc(Cl)cc2cn[nH]c12` [Compound P-0665, (S)-4-(1-(5-chloro-1H-indazol-7-yl)-1-hydroxy-2-methylpropan-2-yl)-N-(3-hydroxypropyl) piperidine-1-carboxamide], the IC50 in experiment [1] and in experiment [2] was 0.0001 to 10 µM in each case.
Turning to `CCC(=O)N1CCC(C(F)(F)C(O)c2cc(Cl)cc3[nH]ncc23)CC1` (centres unmarked) [Compound P-0577, 1-(4-(2-(6-chloro-1H-indazol-4-yl)-1,1-difluoro-2-hydroxyethyl)piperidin-1-yl) propan-1-one], the IC50 in experiment [1] and in experiment [2] was 0.0001 to 10 µM in each case.
Consider `CC(C)(C1CCN(C(=O)N[C@@H]2CCOC2)CC1)[C@H](O)c1cc(Cl)cc2cn[nH]c12` [Compound P-0593, 4-((S)-1-(5-chloro-1H-indazol-7-yl)-1-hydroxy-2-methylpropan-2-yl)-N-((R)-tetrahydrofuran-3-yl)piperidine-1-carboxamide], for which the half-inhibitory concentration (IC50) in experiment [1] and in experiment [2] was 0.0001 to 10 µM throughout.
As for `CC(C)(C1CCN(C(=O)NC2CCC(F)(F)CC2)CC1)[C@H](O)c1cc(Cl)cc2cn[nH]c12` [Compound P-0588, (S)-4-(1-(5-chloro-1H-indazol-7-yl)-1-hydroxy-2-methylpropan-2-yl)-N-(4,4-difluorocyclohexyl) piperidine-1-carboxamide], the IC50 in experiment [1] and in experiment [2] was 0.0001 to 10 µM in each case.
Turning to `CNC(=O)N1CCC(C(F)(F)C(O)c2cc(Cl)cc3[nH]ncc23)CC1` (centres unmarked) [Compound P-0578, 4-(2-(6-chloro-1H-indazol-4-yl)-1,1-difluoro-2-hydroxyethyl)-N-methylpiperidine-1-carboxamide], the IC50 in experiment [1] and in experiment [2] was 0.0001 to 10 µM throughout.
In the case of `OC(c1ccc(Cl)c2cn[nH]c12)C1CCCCC1` (centres unmarked) [Compound P-0003, (4-chloro-1H-indazol-7-yl)(cyclohexyl)methanol], the concentration for half-maximal inhibition (IC50) in experiment [1] and in experiment [2] was 0.0001 to 10 µM in each case.
With `CC(C)(C1CCN(C(=O)NCc2cnccn2)CC1)[C@H](O)c1cc(Cl)cc2cn[nH]c12` [Compound P-0680, (S)-4-(1-(5-chloro-1H-indazol-7-yl)-1-hydroxy-2-methylpropan-2-yl)-N-(pyrazin-2-ylmethyl)piperidine-1-carboxamide], the IC50 in experiment [1] and in experiment [2] was 0.0001 to 10 µM throughout.
`C[C@@H](O)CNC(=O)N1CCC(C(C)(C)[C@H](O)c2cc(Cl)cc3cn[nH]c23)CC1` [Compound P-0670, 4-((S)-1-(5-chloro-1H-indazol-7-yl)-1-hydroxy-2-methylpropan-2-yl)-N-((R)-2-hydroxypropyl) piperidine-1-carboxamide]: the IC50 in experiment [1] and in experiment [2] was 0.0001 to 10 µM throughout.
On to `CC(C)(C1CCN(C(=O)NCCNS(C)(=O)=O)CC1)[C@H](O)c1cc(Cl)cc2cn[nH]c12` [Compound P-0677, (S)-4-(1-(5-chloro-1H-indazol-7-yl)-1-hydroxy-2-methylpropan-2-yl)-N-(2-(methylsulfonamido)ethyl)piperidine-1-carboxamide], for which the IC50 in experiment [1] and in experiment [2] was 0.0001 to 10 µM in each case.
On to `CC(C)(C1CCN(C(=O)CC2CC2)CC1)C(O)c1cc(Cl)cc2[nH]ncc12` (centres unmarked) [Compound P-0608, 1-(4-(1-(6-chloro-1H-indazol-4-yl)-1-hydroxy-2-methylpropan-2-yl)piperidin-1-yl)-2-cyclopropylethan-1-one], for which the IC50 in experiment [1] and in experiment [2] was 0.0001 to 10 µM each time.
As for `COCCNC(=O)N1CCC(C(F)(F)[C@H](O)c2c3c(cc4cn[nH]c24)CC3)CC1` [Compound P-0630, (R)-4-(2-(5,6-dihydro-1H-cyclobuta[f]indazol-7-yl)-1,1-difluoro-2-hydroxyethyl)-N-(2-methoxyethyl) piperidine-1-carboxamide], the IC50 in experiment [1] and in experiment [2] was 0.0001 to 10 µM in each case.
Consider `CCC(=O)N1CCC(C(F)(F)[C@H](O)c2cc(Cl)cc3cn[nH]c23)CC1` [Compound P-0574, (R)-1-(4-(2-(5-chloro-1H-indazol-7-yl)-1,1-difluoro-2-hydroxyethyl)piperidin-1-yl)propan-1-one], for which the IC50 in experiment [1] and in experiment [2] was 0.0001 to 10 µM each time.

(Values after patent US10508085B2, “Compounds and methods for IDO and TDO modulation, and indications therefor” (Plexxikon Inc., priority 2016, dated 2019).)
